{
  "source": "patent US11624093B2",
  "about": "“Tumor suppressor and oncogene biomarkers predictive of anti-immune checkpoint inhibitor response” (Dana-Farber Cancer Institute, Inc., priority 2014, dated 2023)",
  "key": {"[1]": {"test_system": "lung tumors of Kras^G12D mice", "experiment": "MRI lung tumor volume quantification in Kras^G12D mice treated with the arginase inhibitor", "format": "in vivo, mouse", "details": "30 mg/kg once daily gavage, 1 week", "description": "(§1) All EGFR transgenic mice carrying tetracycline inducible human EGFR cDNA were previously generated, crossed with CC10-RTTA mice expressing reverse tetracycline activator from lung Clara cell CC10 promoter, and maintained in mixed background. Double positive progeny were fed with doxycycline diet starting at 5-6 weeks of age for the induction of tumors and maintained on doxycyline throughout the study. EGFR and KrasG12D mice were maintained in mixed (C57Bl/6, FVB, and S129) background and given adeno virus expressing Cre recombinase (5×10^6 titer) intranasally at 5 weeks of age for induction of recombination and tumor formation. All breedings and in vivo experiments were performed with the approval of the DFC1 Animal Care and Use Committee.\n(§2) The arginase inhibitor (R)-2-Amino-6-borono-2-(2-(piperidin-1-yl)ethyl)hexanoic acid, also known as compound HY-15775/compound 9, was obtained from MedChem Express and is well known in the art (see, for example, Van Zandt et al. (2013) J. Med. Chem. 56:2568-2580). The compound was administered to mice at 30 mg/kg in phosphate-buffered saline (PBS) via oral gavage once daily.\nAnimals were anesthetized with 1.5-2% isoflurane (IsoFlo; Abbott) in 100% oxygen. […] Tumor volume quantifications were performed using 3D-Slicer software as described in Weaver et al. (2012) Cancer Res. 72:921-933."}, "[2]": {"test_system": "Kras mutant mice, total lung and tumor infiltrating immune cells", "experiment": "Immune cell analysis of lungs of Kras mutant mice treated with the arginase inhibitor", "format": "in vivo, mouse", "details": "30 mg/kg once daily gavage, 1 week", "description": "as §1, §2\nTotal lung cell and tumor infiltrating immune cell characterization was performed as described in Akbay et al. (2013) Cancer Discov. 3:1355-1363."}},
  "data": [
    {"smiles": "N[C@](CCCCB(O)O)(CCN1CCCCC1)C(=O)O", "note": "[compound 9/HY-15775, (R)-2-Amino-6-borono-2-(2-(piperidin-1-yl)ethyl)hexanoic acid]", "values": [
      {"measurement": "lung tumor volumes (change compared to baseline, MRI)", "setting": "[1]", "result": "decreases"},
      {"measurement": "CD8 T cells in the total T cell population", "setting": "[2]", "result": "increase"},
      {"measurement": "CD11c and CD11b myeloid populations", "setting": "[2]", "result": "no change"},
      {"measurement": "ratio of CD4 T cells in the total T cell population", "setting": "[2]", "result": "decrease"},
      {"measurement": "ratio of CD8 to FoxP3 cells (cytotoxic T cells to regulatory T cells)", "setting": "[2]", "result": "increase"},
      {"measurement": "total T cell counts", "setting": "[2]", "result": "increase"}
    ]}
  ]
}
